Data from patent publication US10155742B2, “Halofuginol derivatives and their use in cosmetic and pharmaceutical compositions” (President and Fellows of Harvard College, priority 2012, dated 2018).

Assays:
[1] = test system: mouse embryo fibroblasts (MEFs); test: HF and proline effects on mouse embryo fibroblasts (gene expression, ECM protein production, protein synthesis); format: cell-based
Method: A) Primary murine CD4^+ CD25^− T cells were activated through the T-cell receptor in Th17 polarizing conditions (Sundrud et al. Science 324:1334-8 (2009)) in the presence of either 10 nM MAZ1310 or HF and the following amino acid supplements: 10× concentration of essential (EAA) or non-essential (NEAA) amino acids mixtures (Biowhittaker or Invitrogen, respectively), or 10× concentrations (1 mM) of indicated individual amino acids. Data are presented as mean percentage of Th17 (IL-17+ IFNg−) cells +/−SD from triplicate wells. B) Th17 differentiation was assayed as described above, in the absence or presence of HF or borrelidin, with or without 1 mM threonine or proline supplementation. C) MEFs were treated with or without HF (50 nM) and/or proline (2 mM) for 4 hours (CHOP, S100A4) or 24 hours (ColIA1, Col1A2). mRNA expression was normalized to expression of TBP and is shown relative to untreated control. […] Confidence intervals (p-value) for the effect of HF alone versus HF+Pro were determined using a two-tailed Student's t test. Data are representative of two separate experiments. D) Cells were pre-incubated for 24 hours with HF and proline as indicated, and secretion of Type I procollagen was measured after 24 hours in conditioned medium of cells plated by Western blot and quantitated using Image J software (top panel). Total protein synthesis was measured as TCA-precipitable ^35S in a scintillation counter (bottom panel).
MEFs were incubated for 4 hours in HF with or without 2 mM proline, to measure new collagen production in conditioned medium. Cells were washed into fresh DMEM/0.2% FBS, and proline or HF re-added, and either conditioned medium (for Type I procollagen) or total cell lysate (for fibronectin, c-actin) and were harvested after 24 hours. Triplicate plates of cells for each condition were treated, harvested, and blotted in parallel. Protein levels were assayed by Western blot, detected using chemiluminescence, and film exposure was quantitated using Image J software.
For assays of HF and proline effects on fibroblasts, mouse embryo fibroblasts were grown in 10% FCS/DMEM. For studies of TGFβ signaling, ^35S methionine incorporation into total protein, and collagen production, cells were shifted into 0.2% FCS/DMEM 24 hours before the addition of HF or proline. For examination of protein expression and phosphorylation, cells were lysed in RIPA with 5 mM EDTA, 1× PhosStop (Roche), and 1× Complete protease inhibitor mix (Roche), and assayed by Western blot as described above. For analysis of gene expression, cells were lysed in Trizol (Invitrogen) and gene expression quantitated by quantitative RT-PCR using the Roche UPR Light-Cycler system.

[2] = molecular target: T1, prolyl tRNA synthetase domain of human EPRS (ProRS) (Homo sapiens, UniProt P07814); settings: 3H Pro incorporation into tRNA
T1 sequence (P07814 998-1512 limits assumed): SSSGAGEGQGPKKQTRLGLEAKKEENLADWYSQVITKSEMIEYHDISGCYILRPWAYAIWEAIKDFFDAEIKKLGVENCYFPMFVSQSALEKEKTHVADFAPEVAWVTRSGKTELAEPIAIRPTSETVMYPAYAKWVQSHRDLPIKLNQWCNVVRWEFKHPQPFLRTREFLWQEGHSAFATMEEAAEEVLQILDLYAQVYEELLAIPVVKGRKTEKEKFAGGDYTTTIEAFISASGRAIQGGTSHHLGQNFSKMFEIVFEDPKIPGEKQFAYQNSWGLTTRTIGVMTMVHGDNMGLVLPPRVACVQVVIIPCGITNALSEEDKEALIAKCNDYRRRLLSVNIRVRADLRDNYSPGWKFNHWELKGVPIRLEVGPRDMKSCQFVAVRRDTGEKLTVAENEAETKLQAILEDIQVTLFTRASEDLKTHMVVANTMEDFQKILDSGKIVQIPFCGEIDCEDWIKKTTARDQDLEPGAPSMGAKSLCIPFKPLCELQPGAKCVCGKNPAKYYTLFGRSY
Method: (§1) Activity of the Prolyl tRNA synthetase domain of EPRS (ProRS) was measured as ^3H Pro incorporation into the charged tRNA pool. […] Purified enzyme was visualized as a single band by Laemmli gel electrophoresis/Coomassie staining.
(§2) Purified enzyme was visualized as a single band by Laemmli gel electrophoresis/Coomassie staining. […] In preliminary experiments, the assay was established to be linear over the time (6 min) and conditions used (30 degrees, 2 mM ATP, 1 μg/μl total tRNA purified from rabbit liver).
(§3) For the rapid, quantitative isolation of aminoacylated tRNA^pro from synthetase reaction mixtures, reactions were stopped with 100 μl of ice cold 20 mM MOPS pH6.2, 200 mM NaCl, 10 mM EDTA, 30% Glycerol and placed on ice. Samples were added to 15 μl of packed Mono Q HP beads (GE Healthcare) equilibrated in the same buffer. Samples were incubated with beads on ice for 10 min, beads were pelleted by 5 sec centrifugation in a tabletop microfuge and washed 3× 1 ml of wash buffer (20 mM MOPS pH6.2, 50 mM NaCl), and recovered pellets counted in a liquid scintillation counter. Background binding of ^3H Pro to beads (using reaction mix with either no enzyme added or no tRNA added) was negligible (20-40 cpm).

[3] = molecular target: T1, prolyl tRNA synthetase domain of human EPRS (ProRS); test: biochemical
Method: as §1, §2, §3

[4] = test system: primary human prostate stromal (hPrSc) cells, s100a4; test: S100A4 mRNA in primary human prostate stromal cells; format: cell-based; settings: with or without TGF 10 ng/ml, FIG. 28
Method: Primary human prostate stromal (hPrSc) cells were left in low-serum media (0.2%) for 24 hours, and treated consecutively twice for 48 hours with or without tumor-growth factor beta (TGF; 10 ng/ml), halofuginone (HF) or halofuginol (HFol) at the concentrations indicated. Relative mRNA levels of the fibrosis/tissue invasion marker s100a4 was measured by quantitative real-time PCR using glyceraldehyde-3-phosphate dehydrogenase (GAPDH) as internal control.

[5] = test system: P. falciparum (Dd2); test: In vitro P. falciparum viability assay with excess proline; format: cell-based, Plasmodium falciparum; settings: Dd2 strain in red blood cells, relative to unmodified RPMI, FIG. 23
Method: The activity of halofuginone and amodiaquine as inhibitors of P. falciparum growth was tested in erythrocytes in RPMI with or without excess amino acids as indicated, and IC50 values were normalized to IC50 values obtained under standard conditions using unmodified RPMI (numbers in bold). The absolute IC50 values for halofuginone and amodiaquine for RPMI are reported in parentheses. Fold amino acid indicated (e.g., “5×”) is relative to the concentration of the respective amino acid in RPMI. Fold concentration of D-Pro and L-Orn are relative to L-Pro.
In vitro potency against P. falciparum (DD2) was assessed using a modified version of the method of Plouffe and coworkers (Plouffe et al. Proc. Natl. Acad. Sci. USA 105:9059-64 (2008)). Parasites were cultured in the presence of drug in RPMI (Sigma) containing 4.16 mg/ml Albumax in a total volume of 50 μl at a 2.5% hematocrit and an initial parasitemia of 0.3% in black Greiner GNF clear-bottom plates. Cultures were incubated 72 hr at 37° C. under […], 4% CO2 and 3% O2. At the end of the incubation, SYBR green was added to a dilution of 1:10,000 and plates were stored overnight (or until ready to be read) at −80° C. Just before reading, plates were centrifuged at 700 rpm and fluorescence was read using 480 nm excitation and 530 nm emission frequencies. Compound concentrations that inhibit parasite replication reduce the fluorescence intensity of SYBR green bound to parasite DNA.

[6] = test system: prolyl-tRNA charging in the RRL system; test: tRNA charging in RRL (14C Pro or 35S Met incorporation into tRNA); settings: FIG. 2D
[7] = test system: Th17-driven multiple sclerosis model; settings: Sundrud et al. 2009; cited from earlier work

For `O=C(C[C@H]1NCCC[C@@H]1O)Cn1cnc2cc(Br)c(Cl)cc2c1=O` (racemic) [HF, 7-bromo-6-chloro-3-[3-(3-hydroxy-2-piperidinyl)-2-oxopropyl]-4(3H)-quinazolinone], the “production of secreted Type I procollagen and fibronectin” value ([1]; 24 hours treatment, FIG. 6D) was “dramatically inhibited”, the “mRNA levels of Col1A1, Col1A2, and S100A4” value ([1]; MEFs, HF 50 nM, 4 or 24 hours, FIG. 6C) was “inhibits” and the “expression of mRNA encoding CHOP” value ([1]; MEFs, HF 50 nM, 4 hours, FIG. 6C) was “stimulated”. The “35S-methionine incorporation into total protein” value ([1]; same doses as ECM protein inhibition, FIG. 6D) was “did not significantly change”, the “inhibition of ProRS activity” value [2] was “inhibits” and the Ki [3] was 18.3 nM. The “expression of the activated fibroblast marker S100A4” value [4] was “inhibit”, the “fold increase of effective IC50 on addition of 5× proline” value [5] was “roughly 7 fold” and the “incorporation of 14C-Pro into tRNA” value [6] was “inhibited”. The development of disease [7] was “inhibits”.
